Experimental data published in patent US8927717B1, “Thiochromeno[2,3-c]quinolin-12-one derivatives, preparation method and application thereof” (National Defense Medical Center, priority 2014, dated 2015).

Columns and labels:
[1] = tested on: HCC-2998; type: cell-based
[2] = tested on: SK-MEL-28; type: cell-based
[3] = tested on: M14; type: cell-based
[4] = tested on: IGROV1; type: cell-based
[5] = tested on: OVCAR-4; type: cell-based
[6] = tested on: TK-10; type: cell-based; settings: Renal cancer; 10^−5 molar; 48 hours; SRB
[7] = tested on: HOP-92; type: cell-based; settings: Non-small cell lung cancer; 10^−5 molar; 48 hours; SRB
[8] = tested on: UACC-257; type: cell-based
[9] = tested on: A498; type: cell-based
[10] = biological target: T1, TOP I (Topoisomerase I) (Homo sapiens, UniProt P11387); assay: TOP I mediated supercoiled DNA relaxation assay; type: biochemical; settings: primary assay at 25 and/or 50 μM
T1 construct: purchased TopoGEN TG2005H
T1 sequence (P11387 1-765): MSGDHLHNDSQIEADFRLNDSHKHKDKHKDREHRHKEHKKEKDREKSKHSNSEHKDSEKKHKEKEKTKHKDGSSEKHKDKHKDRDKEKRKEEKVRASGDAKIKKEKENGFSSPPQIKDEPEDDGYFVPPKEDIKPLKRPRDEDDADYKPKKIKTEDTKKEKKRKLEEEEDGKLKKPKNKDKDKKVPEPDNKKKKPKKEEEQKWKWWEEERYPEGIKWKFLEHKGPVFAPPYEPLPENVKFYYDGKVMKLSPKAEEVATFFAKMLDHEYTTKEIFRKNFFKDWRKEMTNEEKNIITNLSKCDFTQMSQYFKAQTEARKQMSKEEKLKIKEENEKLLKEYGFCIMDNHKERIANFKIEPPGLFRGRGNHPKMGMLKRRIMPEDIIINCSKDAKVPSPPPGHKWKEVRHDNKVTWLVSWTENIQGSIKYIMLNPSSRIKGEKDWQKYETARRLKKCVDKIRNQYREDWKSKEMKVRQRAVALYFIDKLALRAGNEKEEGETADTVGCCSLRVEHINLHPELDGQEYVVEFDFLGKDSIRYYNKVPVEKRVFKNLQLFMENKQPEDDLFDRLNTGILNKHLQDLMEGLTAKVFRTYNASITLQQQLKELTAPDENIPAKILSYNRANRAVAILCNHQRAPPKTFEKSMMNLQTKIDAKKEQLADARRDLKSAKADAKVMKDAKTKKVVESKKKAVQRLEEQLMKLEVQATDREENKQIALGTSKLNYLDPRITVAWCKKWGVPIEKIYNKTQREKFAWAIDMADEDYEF
Method: According to the cell cytotoxicity, compounds 5, 7, 8, 16, 19, N2, N7, N8, N9, N14-N19, and N25 were also selected for primary TOP I and II activities assays at 25 and/or 50 μM (FIG. 2-4).

[11] = tested on: MALME-3M; type: cell-based; settings: Melanoma; 10^−5 molar; 48 hours; SRB
[12] = biological target: T2, TOP II (Topoisomerase II) (Homo sapiens, UniProt P11388); assay: TOP II-catalyzed relaxation of plasmid DNA assay; type: biochemical
T2 construct: purchased TopoGEN TG-2000H-1
T2 sequence (P11388 whole entry): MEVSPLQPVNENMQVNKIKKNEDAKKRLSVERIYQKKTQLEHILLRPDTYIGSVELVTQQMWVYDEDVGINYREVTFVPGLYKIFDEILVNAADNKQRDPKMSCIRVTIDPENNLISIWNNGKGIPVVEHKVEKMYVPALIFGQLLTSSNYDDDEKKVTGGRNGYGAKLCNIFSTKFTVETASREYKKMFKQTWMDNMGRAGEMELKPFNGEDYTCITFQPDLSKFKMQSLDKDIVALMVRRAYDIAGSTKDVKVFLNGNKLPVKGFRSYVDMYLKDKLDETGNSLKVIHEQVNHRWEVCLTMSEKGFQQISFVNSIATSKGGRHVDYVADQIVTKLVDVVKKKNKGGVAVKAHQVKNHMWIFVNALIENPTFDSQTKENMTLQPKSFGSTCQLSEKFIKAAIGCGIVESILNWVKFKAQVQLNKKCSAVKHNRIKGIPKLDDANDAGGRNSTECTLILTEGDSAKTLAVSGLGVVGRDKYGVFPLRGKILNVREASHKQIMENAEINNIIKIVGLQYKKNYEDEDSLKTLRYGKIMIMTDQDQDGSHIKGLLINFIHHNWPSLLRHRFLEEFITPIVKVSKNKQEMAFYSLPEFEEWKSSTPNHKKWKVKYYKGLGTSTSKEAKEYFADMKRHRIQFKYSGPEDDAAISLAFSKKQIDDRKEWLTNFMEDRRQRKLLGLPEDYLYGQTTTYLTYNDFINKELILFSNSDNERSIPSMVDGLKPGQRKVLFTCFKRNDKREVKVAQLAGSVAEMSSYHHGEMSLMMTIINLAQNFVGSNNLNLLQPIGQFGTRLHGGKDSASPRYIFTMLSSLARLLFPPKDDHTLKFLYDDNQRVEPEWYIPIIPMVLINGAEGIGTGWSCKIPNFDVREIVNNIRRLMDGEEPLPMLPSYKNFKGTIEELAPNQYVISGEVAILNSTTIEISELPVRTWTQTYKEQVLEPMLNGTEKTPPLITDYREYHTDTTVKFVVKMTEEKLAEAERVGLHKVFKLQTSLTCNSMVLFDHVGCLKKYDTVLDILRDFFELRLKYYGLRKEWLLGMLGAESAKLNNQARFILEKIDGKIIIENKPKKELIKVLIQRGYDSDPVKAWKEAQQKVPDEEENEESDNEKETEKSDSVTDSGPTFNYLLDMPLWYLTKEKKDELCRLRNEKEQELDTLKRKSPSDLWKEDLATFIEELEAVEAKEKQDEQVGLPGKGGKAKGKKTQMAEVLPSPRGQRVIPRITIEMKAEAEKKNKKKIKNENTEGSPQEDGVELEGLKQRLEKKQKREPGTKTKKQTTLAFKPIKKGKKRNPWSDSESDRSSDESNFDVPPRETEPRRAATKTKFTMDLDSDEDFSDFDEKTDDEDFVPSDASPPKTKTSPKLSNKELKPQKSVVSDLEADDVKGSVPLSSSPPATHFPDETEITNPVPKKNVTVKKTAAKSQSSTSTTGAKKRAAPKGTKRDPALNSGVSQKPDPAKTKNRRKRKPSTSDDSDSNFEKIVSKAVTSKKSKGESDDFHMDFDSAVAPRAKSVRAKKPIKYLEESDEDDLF
Method: We also performed TOP II-catalyzed relaxation of plasmid DNA assays (FIG. 5-7) to evaluate if compounds could inhibit TOP II. […] The IC50 value of compounds 7, N7, N8, N14, N15, N18, and N19 were about 10, 10, 1, 10, 5, 1, and 1 μM, respectively (detect by TopoGEN TG2005H, TG-2000H-1).

[13] = tested on: OVCAR-5; type: cell-based
[14] = tested on: SF-268; type: cell-based
[15] = tested on: NCI/ADR-RES; type: cell-based
[16] = tested on: MDA-MB-435; type: cell-based
[17] = tested on: OVCAR-3; type: cell-based
[18] = tested on: SF-539; type: cell-based
[19] = tested on: CAKI-1; type: cell-based
[20] = tested on: SK-MEL-2; type: cell-based
[21] = biological target: T1, TOP I (Topoisomerase I); assay: TOP I mediated supercoiled DNA relaxation assay; type: biochemical; settings: five different concentrations; TopoGEN TG2005H, TG-2000H-1
[22] = tested on: UACC-62; type: cell-based
[23] = tested on: SNB-19; type: cell-based
[24] = Homo sapiens, HCC-2998, five dose
[25] = Homo sapiens, SK-MEL-28, five dose
[26] = Melanoma, 10^−5 molar, 48 hours, SRB
[27] = Ovarian cancer, 10^−5 molar, 48 hours, SRB
[28] = Renal cancer, 10^−5 molar, 48 hours, SRB
[29] = CNS cancer, 10^−5 molar, 48 hours, SRB
[30] = Homo sapiens, SF-539, five dose
[31] = Homo sapiens, SK-Mel-2, five dose
[32] = Homo sapiens, SNB-19, five dose

SMILES: CN(C)CCNc1nc2ccccc2c2c(=O)c3cc(Cl)ccc3sc12 [Compound N7, 10-Chloro-6-((2-(dimethylamino)ethyl)amino)-12H-thiochromeno[2,3-c]quinolin-12-one]
- Growth percent HCC-2998 ([1]; Colon cancer, 10^−5 molar, 48 hours, SRB): −83.65%
- TGI ([1]; HCC-2998, five dose): 3.38 µM
- GI50 [1, 24]: 1.68 µM
- LC50 [1, 24]: 6.82 µM
- GI50 [2, 25]: 1.81 µM
- LC50 [2, 25]: 5.89 µM
- Growth percent SK-MEL-28 [2, 26]: −76.79%
- TGI ([2]; SK-MEL-28, five dose): 3.27 µM
- GI50 ([3]; Homo sapiens, M14, five dose): 1.85 µM
- LC50 ([3]; Homo sapiens, M14, five dose): 6.4 µM
- TGI ([3]; M14, five dose): 3.44 µM
- Growth percent M14 [3, 26]: −92.77%
- GI50 ([4]; Homo sapiens, IGROV-1, IGROV1, five dose): 1.7 µM
- CC50 ([4]; Homo sapiens, IGROV-1, IGROV1, five dose, read-out: LC50 (the source's name)): 6.58 µM
- TGI ([4]; IGROV1, five dose): 3.34 µM
- Growth percent IGROV1 [4, 27]: 33.20%
- GI50 ([5]; Homo sapiens, OVCAR-4, five dose): 1.19 µM
- CC50 ([5]; Homo sapiens, OVCAR-4, five dose, read-out: LC50 (the source's name)): 6.35 µM
- TGI ([5]; OVCAR-4, five dose): 2.75 µM
- Growth percent OVCAR-4 [5, 27]: 60.67%
- Growth percent TK-10 [6]: −89.05%
- Growth percent HOP-92 [7]: −10.12%
- GI50 ([8]; Homo sapiens, UACC-257, five dose): 1.74 µM
- CC50 ([8]; Homo sapiens, UACC-257, five dose, read-out: LC50 (the source's name)): 5.93 µM
- Growth percent UACC-257 [8, 26]: −48.22%
- TGI ([8]; UACC-257, five dose): 3.21 µM
- TGI ([9]; A498, five dose): 9.44 µM
- GI50 ([9]; Homo sapiens, A498, five dose): 2.7 µM
- CC50 ([9]; Homo sapiens, A498, five dose, read-out: LC50 (the source's name)): 3.52 µM
- Growth percent A498 [9, 28]: 43.17%
- inhibitory effect in TOP I activity assay compared with CPT [10]: more potent inhibitory effects than CPT
- Growth percent MALME-3M [11]: −4.32%
- IC50 ([12]; five different concentrations, TopoGEN TG2005H, TG-2000H-1, read-out: IC50 value, TOP II mediated supercoiled DNA relaxation): ~10 µM
- inhibitory effect in TOP II relaxation assay compared with VP-16 ([12]; primary assay at 25 and/or 50 μM): more potent inhibitory effects than the positive agent VP-16
- GI50 ([13]; Homo sapiens, OVCAR-5, five dose): 1.45 µM
- CC50 ([13]; Homo sapiens, OVCAR-5, five dose, read-out: LC50 (the source's name)): 5.83 µM
- TGI ([13]; OVCAR-5, five dose): 2.91 µM
- Growth percent OVCAR-5 [13, 27]: 24.27%
- Growth percent SF-268 [14, 29]: 39.05%
- GI50 ([14]; Homo sapiens, SF-268, five dose): 1.57 µM
- CC50 ([14]; Homo sapiens, SF-268, five dose, read-out: LC50 (the source's name)): 6.35 µM
- TGI ([14]; SF-268, five dose): 3.16 µM
- GI50 ([15]; Homo sapiens, NCI/ADR-RES, five dose): 1.67 µM
- CC50 ([15]; Homo sapiens, NCI/ADR-RES, five dose, read-out: LC50 (the source's name)): 6 µM
- TGI ([15]; NCI/ADR-RES, five dose): 3.17 µM
- Growth percent NCI/ADR-RES [15, 27]: 23.00%
- GI50 ([16]; Homo sapiens, MDA-MB-435, five dose): 1.71 µM
- CC50 ([16]; Homo sapiens, MDA-MB-435, five dose, read-out: LC50 (the source's name)): 6.05 µM
- TGI ([16]; MDA-MB-435, five dose): 3.22 µM
- Growth percent MDA-MB-435 [16, 26]: −64.64%
- GI50 ([17]; Homo sapiens, OVCAR-3, five dose): 1.61 µM
- CC50 ([17]; Homo sapiens, OVCAR-3, five dose, read-out: LC50 (the source's name)): 5.58 µM
- TGI ([17]; OVCAR-3, five dose): 3.00 µM
- Growth percent OVCAR-3 [17, 27]: 19.74%
- Growth percent SF-539 [18, 29]: 48.73%
- GI50 [18, 30]: 1.68 µM
- LC50 [18, 30]: 5.67 µM
- TGI ([18]; SF-539, five dose): 3.08 µM
- TGI ([19]; CAKI-1, five dose): 2.80 µM
- GI50 ([19]; Homo sapiens, CAKI-1, five dose): 1.43 µM
- CC50 ([19]; Homo sapiens, CAKI-1, five dose, read-out: LC50 (the source's name)): 5.49 µM
- Growth percent CAKI-1 [19, 28]: 34.60%
- GI50 [20, 31]: 1.8 µM
- LC50 [20, 31]: 6.12 µM
- Growth percent SK-MEL-2 [20, 26]: −7.83%
- TGI ([20]; SK-Mel-2, five dose): 3.32 µM
- IC50 [21]: ~10 µM
- GI50 ([22]; Homo sapiens, UACC-62, five dose): 1.7 µM
- CC50 ([22]; Homo sapiens, UACC-62, five dose, read-out: LC50 (the source's name)): 5.88 µM
- Growth percent UACC-62 [22, 26]: −76.58%
- TGI ([22]; UACC-62, five dose): 3.16 µM
- Growth percent SNB-19 [23, 29]: 55.44%
- GI50 [23, 32]: 1.54 µM
- LC50 (concentration killing 50% of cells) [23, 32]: 6.1 µM
- TGI ([23]; SNB-19, five dose): 3.07 µM
